Measured values reported in patent US8173841B2, “Tetrahydro-naphthalene derivatives” (Xention Limited, priority 2003, dated 2012).

Assays:
[1] = target: T1, human VR1 (Homo sapiens, UniProt Q8NER1); assay: Capsaicin-induced Ca2+ influx in the human VR1-transfected CHO cell line (Assay 1); format: cell-based; settings: human VR1-CHOluc9aeq cells, stimulation with 10 nM capsaicin, Fluo-3 AM / FDSS-3000; compounds of purity about 40 to 90%; read-out: Activity Class (IC50 of capsaicin-induced Ca2+ influx)
T1 construct: expressed in transfected cells
Source text: [Measurement of Capsaicin-Induced Ca^2+ Influx in the Human VR1-Transfected CHO Cell Line] (Assay 1)
(1) Establishment of the Human VR1-CHOluc9aeq Cell Line
Human vanilloid receptor (hVR1) cDNA was cloned from libraries of axotomized dorsal root ganglia (WO 00/29577). The cloned hVR1 cDNA was constructed with pcDNA3 vector and transfected into a CHOluc9aeq cell line. The cell line contains aequorin and CRE-luciferase reporter genes as read-out signals. The transfectants were cloned by limiting dilution in selection medium (DMEM/F12 medium (Gibco BRL) supplemented with 10% FCS, 1.4 mM Sodium pyruvate, 20 mM HEPES, 0.15% Sodium bicarbonate, 100 U/ml penicillin, 100 μg/ml streptomycin, 2 mM glutamine, non-essential amino acids and 2 mg/ml G418). Ca^2+ influx was examined in the capsaicin-stimulated clones. A high responder clone was selected and used for further experiments in the project. The human VR1-CHOluc9aeq cells were maintained in the selection medium and passaged every 3-4 days at 1−2.5×10^5 cells/flask ([…]).
(2) Measurement of Ca^2+ influx using FDSS-3000
Human VR1-CHOluc9aeq cells were suspended in a culture medium which is the same as the selection medium except for G418 and seeded at a density of 1,000 cells per well into 384-well plates (black walled clear-base/Nalge Nunc International). Following the culture for 48 hrs the medium was changed to 2 μM Fluo-3 AM (Molecular Probes) and 0.02% Puronic F-127 in assay buffer (Hank's balanced salt solution (HBSS), 17 mM HEPES (pH7.4), 1 mM Probenecid, 0.1% BSA) and the cells were incubated for 60 min at 25° C. After washing twice with assay buffer the cells were incubated with a test compound or vehicle for 20 min at 25° C. Mobilization of cytoplasmic Ca^2+ was measured by FDSS-3000 (λex=488 nm, λem=540 nm/Hamamatsu Photonics) for 60 sec after the stimulation with 10 nM capsaicin. Integral R was calculated and compared with controls.
The data corresponds to the compounds as yielded by solid phase synthesis and thus to levels of purity of about 40 to 90%. For practical reasons, the compounds are grouped in four classes of activity as follows: IC50=A (< or =) 0.1 μM<B (< or =) 0.5 μM<C (< or =) 1 μM<D

T1 sequence (Q8NER1 whole entry): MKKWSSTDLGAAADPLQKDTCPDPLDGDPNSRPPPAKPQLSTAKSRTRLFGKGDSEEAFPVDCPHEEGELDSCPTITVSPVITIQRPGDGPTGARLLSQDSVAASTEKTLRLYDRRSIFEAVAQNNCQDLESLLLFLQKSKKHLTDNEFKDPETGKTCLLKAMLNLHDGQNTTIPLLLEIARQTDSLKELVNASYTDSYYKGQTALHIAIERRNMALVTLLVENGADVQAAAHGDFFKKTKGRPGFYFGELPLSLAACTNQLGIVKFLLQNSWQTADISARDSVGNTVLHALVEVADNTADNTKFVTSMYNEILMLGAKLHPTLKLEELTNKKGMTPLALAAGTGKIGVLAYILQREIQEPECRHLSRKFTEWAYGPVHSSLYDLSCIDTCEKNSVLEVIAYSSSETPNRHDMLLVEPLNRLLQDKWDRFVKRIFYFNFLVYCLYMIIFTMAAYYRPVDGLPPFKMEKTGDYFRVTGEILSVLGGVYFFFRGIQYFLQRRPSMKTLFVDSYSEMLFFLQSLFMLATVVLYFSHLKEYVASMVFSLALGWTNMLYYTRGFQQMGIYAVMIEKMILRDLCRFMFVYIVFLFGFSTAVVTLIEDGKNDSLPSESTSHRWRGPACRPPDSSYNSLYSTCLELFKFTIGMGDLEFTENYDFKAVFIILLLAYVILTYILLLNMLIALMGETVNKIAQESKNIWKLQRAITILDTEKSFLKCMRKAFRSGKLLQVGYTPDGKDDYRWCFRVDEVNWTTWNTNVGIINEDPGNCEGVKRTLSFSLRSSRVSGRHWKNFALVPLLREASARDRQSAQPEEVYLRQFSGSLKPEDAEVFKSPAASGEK

SMILES	IC50 [1] [nM]	melting point
CCOC(=O)c1cccc(-c2cccc(NC(=O)Nc3cccc4c3CC(O)CC4)c2)c1 (stereo not drawn) [Example 1-6]	< 100	142 to 144 °C
O=C(NCc1ccc(-c2cc(Cl)cc(Cl)c2)cc1)Nc1cccc2c1CC(O)CC2 (stereo not drawn) [Example 1-53]	< 100	204 to 205 °C
O=C(Nc1cccc(-c2ccccc2Cl)c1)Nc1cccc2c1CC(O)CC2 (stereo not drawn) [Example 1-8]	< 100	–
O=C(NCc1ccc(-c2c(F)cccc2F)cc1)Nc1cccc2c1CC(O)CC2 (stereo not drawn) [Example 1-50]	< 100	204 to 205 °C
CSc1ccc(-c2ccc(CNC(=O)Nc3cccc4c3CC(O)CC4)cc2)cc1 (stereo not drawn) [Example 1-46]	< 100	216 to 217 °C
O=C(NCc1cccc(-c2cccc(OC(F)(F)F)c2)c1)Nc1cccc2c1CC(O)CC2 (stereo not drawn) [Example 1-56]	< 100	175 to 176 °C
O=C(NCc1cccc(-c2ccc(F)c(F)c2)c1)Nc1cccc2c1CC(O)CC2 (stereo not drawn) [Example 1-65]	< 100	188 to 189 °C
CN(C)c1ccc(-c2ccc(C(=O)Nc3cccc4c3CC(O)CC4)cc2)cc1 (stereo not drawn) [Example 2-2]	< 100	222.1 to 225 °C
O=C(NCc1ccc(-c2ccc(OC(F)(F)F)cc2)cc1)Nc1cccc2c1CC(O)CC2 (stereo not drawn) [Example 1-43]	< 100	199 to 200 °C
COc1ccc(-c2cccc(C(=O)Nc3cccc4c3CC(O)CC4)c2)cc1 (stereo not drawn) [Example 2-5]	500 to 1000	193.3 to 196.5 °C
COc1ccc(-c2cccc(C(=O)N(C)c3cccc4c3CC(O)CC4)c2)cc1 (stereo not drawn) [Example 2-3]	500 to 1000	150 to 151.2 °C
O=C(Nc1cccc(-c2cccc([N+](=O)[O-])c2)c1)Nc1cccc2c1CC(O)CC2 (stereo not drawn) [Example 1-28]	< 100	238 °C
O=C(NCc1cccc(-c2cccc([N+](=O)[O-])c2)c1)Nc1cccc2c1CC(O)CC2 (stereo not drawn) [Example 1-63]	< 100	191 to 192 °C
O=C(Nc1cccc(-c2ccccc2C(F)(F)F)c1)Nc1cccc2c1CC(O)CC2 (stereo not drawn) [Example 1-9]	< 100	–
COc1ccc(OC)c(-c2cccc(NC(=O)Nc3cccc4c3CC(O)CC4)c2)c1 (stereo not drawn) [Example 1-15]	< 100	190 °C
O=C(Nc1cccc(-c2cc(Cl)ccc2Cl)c1)Nc1cccc2c1CC(O)CC2 (stereo not drawn) [Example 1-22]	< 100	209 °C
COc1ccc(-c2ccc(CNC(=O)Nc3cccc4c3CC(O)CC4)cc2)cc1OC (stereo not drawn) [Example 1-47]	500 to 1000	205 to 206 °C
COc1ccc(OC)c(-c2ccc(CNC(=O)Nc3cccc4c3CC(O)CC4)cc2)c1 (stereo not drawn) [Example 1-36]	< 100	113 to 114 °C
COc1ccc(-c2ccc(CNC(=O)Nc3cccc4c3CC(O)CC4)cc2)cc1 (stereo not drawn) [Example 1-31]	< 100	215 to 216 °C
COc1ccccc1-c1cccc(CNC(=O)Nc2cccc3c2CC(O)CC3)c1 (stereo not drawn) [Example 1-61]	< 100	129 to 130 °C
Cc1ccc(-c2cccc(NC(=O)Nc3cccc4c3CC(O)CC4)c2)cc1 (stereo not drawn) [Example 1-1, N-(7-Hydroxy-5,6,7,8-tetrahydronaphthalen-1-yl)-N′-(4′-methylbiphenyl-3-yl)urea]	< 100	217 to 219 °C
O=C(Nc1cccc(-c2ccc(OCCN3CCOCC3)cc2)c1)Nc1cccc2c1CC(O)CC2 (stereo not drawn) [Example 1-29]	< 100	–
CN(C)c1ccc(-c2cccc(CNC(=O)Nc3cccc4c3CC(O)CC4)c2)cc1 (stereo not drawn) [Example 1-57]	< 100	207 to 208 °C
O=C(Nc1cccc(-c2ccc(C(F)(F)F)cc2)c1)Nc1cccc2c1CC(O)CC2 (stereo not drawn) [Example 1-7]	< 100	–
O=C(Nc1cccc(-c2ccc(F)cc2F)c1)Nc1cccc2c1CC(O)CC2 (stereo not drawn) [Example 1-5]	< 100	187 to 189 °C
CSc1ccc(-c2cccc(NC(=O)Nc3cccc4c3CC(O)CC4)c2)cc1 (stereo not drawn) [Example 1-10]	< 100	–
Cc1cc(C)cc(-c2ccc(CNC(=O)Nc3cccc4c3CC(O)CC4)cc2)c1 (stereo not drawn) [Example 1-51]	< 100	205 to 206 °C

SMILES	IC50 [1] [nM]	melting point
Cc1ccc(-c2ccc(CNC(=O)Nc3cccc4c3CC(O)CC4)cc2)cc1 (stereo not drawn) [Example 1-32]	< 100	211 to 212 °C
O=C(Nc1cccc2c1CC(O)CC2)c1ccc(-c2ccccc2)cc1 (stereo not drawn) [Example 2-4]	< 100	215 to 217 °C
O=C(NCc1ccc(-c2ccc(F)cc2)cc1)Nc1cccc2c1CC(O)CC2 (stereo not drawn) [Example 1-45]	< 100	201 to 202 °C
CSc1ccc(-c2cc(CNC(=O)Nc3cccc4c3CC(O)CC4)ccc2N2CCCCC2)cc1 (stereo not drawn) [Example 1-76]	< 100	113 to 115 °C
CSc1ccc(-c2cccc(CNC(=O)Nc3cccc4c3CC(O)CC4)c2)cc1 (stereo not drawn) [Example 1-68]	< 100	195 to 196 °C
COc1ccc(-c2cccc(CNC(=O)Nc3cccc4c3CC(O)CC4)c2)cc1OC (stereo not drawn) [Example 1-62]	< 100	223 to 224 °C
O=C(NCc1cccc(-c2ccc(F)cc2F)c1)Nc1cccc2c1CC(O)CC2 (stereo not drawn) [Example 1-64]	< 100	197 to 198 °C
COc1ccc(-c2cccc(CNC(=O)Nc3cccc4c3CC(O)CC4)c2)cc1 (stereo not drawn) [Example 1-73]	< 100	188 to 189 °C
O=C(NCc1ccc(-c2cccc(C(F)(F)F)c2)cc1)Nc1cccc2c1CC(O)CC2 (stereo not drawn) [Example 1-44]	< 100	196 to 197 °C
O=C(NCc1cccc(-c2ccc(F)c(Cl)c2)c1)Nc1cccc2c1CC(O)CC2 (stereo not drawn) [Example 1-71]	< 100	188 to 189 °C
COc1ccc(-c2cccc(NC(=O)Nc3cccc4c3CC(O)CC4)c2)cc1 (stereo not drawn) [Example 1-14]	< 100	203 °C
O=C(NCc1cccc(-c2c(F)cccc2F)c1)Nc1cccc2c1CC(O)CC2 (stereo not drawn) [Example 1-69]	< 100	141 to 142 °C
O=C(Nc1cccc(-c2cc(F)cc(F)c2)c1)Nc1cccc2c1CC(O)CC2 (stereo not drawn) [Example 1-11]	< 100	–
O=C(Nc1cccc(-c2ccc(OC(F)(F)F)cc2)c1)Nc1cccc2c1CC(O)CC2 (stereo not drawn) [Example 1-25]	< 100	210 °C
O=C(Nc1cccc(-c2cccc(C(F)(F)F)c2)c1)Nc1cccc2c1CC(O)CC2 (stereo not drawn) [Example 1-23]	< 100	210 °C
O=C(NCc1ccc(-c2ccccc2F)cc1)Nc1cccc2c1CC(O)CC2 (stereo not drawn) [Example 1-48]	< 100	187 to 188 °C
O=C(NCc1cccc(-c2cc(C(F)(F)F)cc(C(F)(F)F)c2)c1)Nc1cccc2c1CC(O)CC2 (stereo not drawn) [Example 1-59]	< 100	208 to 209 °C
COc1cccc(-c2cccc(NC(=O)Nc3cccc4c3CC(O)CC4)c2)c1 (stereo not drawn) [Example 1-13]	< 100	204 °C
O=C(NCc1ccc(-c2ccc(Cl)cc2Cl)cc1)Nc1cccc2c1CC(O)CC2 (stereo not drawn) [Example 1-40]	< 100	177 to 178 °C
O=C(Nc1cccc(-c2ccc(Cl)c(F)c2)c1)Nc1cccc2c1CC(O)CC2 (stereo not drawn) [Example 1-3]	< 100	94 to 96 °C
O=C(NCc1ccc(-c2cccc([N+](=O)[O-])c2)cc1)Nc1cccc2c1CC(O)CC2 (stereo not drawn) [Example 1-54]	< 100	206 to 207 °C
O=C(NCc1ccc(-c2ccc(F)cc2F)cc1)Nc1cccc2c1CC(O)CC2 (stereo not drawn) [Example 1-49]	< 100	191 to 192 °C
O=C(Cc1cccc(-c2ccccc2)c1)Nc1cccc2c1CC(O)CC2 (stereo not drawn) [Example 3-1, 2-Biphenyl-3-yl-N-(7-hydroxy-5,6,7,8-tetrahydronaphthalen-1-yl)acetamide]	500 to 1000	> 134 °C (dec.)
COc1ccccc1-c1ccc(CNC(=O)Nc2cccc3c2CC(O)CC3)cc1 (stereo not drawn) [Example 1-35]	< 100	128 to 129 °C
Cc1cc(C)cc(-c2cccc(CNC(=O)Nc3cccc4c3CC(O)CC4)c2)c1 (stereo not drawn) [Example 1-67]	< 100	197 to 198 °C
O=C(Cc1cccc(-c2ccc(F)cc2)c1)Nc1cccc2c1CC(O)CC2 (stereo not drawn) [Example 3-2]	500 to 1000	–
